Experimental data from ChEMBL document CHEMBL5291721, “A preclinical secondary pharmacology resource illuminates target-adverse drug reaction associations of marketed drugs” (Nat Commun, 2023).

Tests used:
[1] = molecular target: T1, Muscarinic acetylcholine receptor M2 (Homo sapiens, UniProt P08172)
T1 sequence (P08172 whole entry): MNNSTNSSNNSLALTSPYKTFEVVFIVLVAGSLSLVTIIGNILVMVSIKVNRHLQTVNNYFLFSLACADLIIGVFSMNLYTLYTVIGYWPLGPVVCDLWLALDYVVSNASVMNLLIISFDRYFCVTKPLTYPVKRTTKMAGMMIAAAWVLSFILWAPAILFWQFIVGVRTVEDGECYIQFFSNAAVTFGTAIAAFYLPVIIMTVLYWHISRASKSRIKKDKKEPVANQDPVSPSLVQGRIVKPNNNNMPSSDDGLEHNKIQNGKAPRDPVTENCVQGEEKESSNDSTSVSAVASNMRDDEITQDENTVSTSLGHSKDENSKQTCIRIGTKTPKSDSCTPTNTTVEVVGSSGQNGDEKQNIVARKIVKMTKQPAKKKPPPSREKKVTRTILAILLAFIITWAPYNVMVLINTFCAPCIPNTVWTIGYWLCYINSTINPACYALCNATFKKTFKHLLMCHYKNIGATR

[2] = molecular target: T2, Alpha-1A adrenergic receptor (Homo sapiens, UniProt P35348); format: functional, cell-based
T2 sequence (P35348 whole entry): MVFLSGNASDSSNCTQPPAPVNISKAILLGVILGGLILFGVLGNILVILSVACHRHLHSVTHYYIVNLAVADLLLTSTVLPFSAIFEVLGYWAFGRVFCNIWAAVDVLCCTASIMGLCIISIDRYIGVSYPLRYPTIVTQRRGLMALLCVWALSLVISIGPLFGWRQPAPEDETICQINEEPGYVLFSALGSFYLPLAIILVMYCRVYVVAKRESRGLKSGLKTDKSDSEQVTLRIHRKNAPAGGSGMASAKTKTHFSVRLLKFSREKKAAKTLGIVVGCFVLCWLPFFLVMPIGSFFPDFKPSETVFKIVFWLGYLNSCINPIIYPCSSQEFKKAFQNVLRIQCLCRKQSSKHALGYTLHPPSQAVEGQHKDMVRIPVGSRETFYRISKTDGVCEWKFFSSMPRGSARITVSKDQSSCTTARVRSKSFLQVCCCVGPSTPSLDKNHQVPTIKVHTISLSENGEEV

[3] = molecular target: Sodium-dependent dopamine transporter (Homo sapiens, UniProt Q01959)
Thromboxane A2 receptor = molecular target: T3, Thromboxane A2 receptor (Homo sapiens, UniProt P21731); format: functional, cell-based
T3 sequence (P21731 whole entry): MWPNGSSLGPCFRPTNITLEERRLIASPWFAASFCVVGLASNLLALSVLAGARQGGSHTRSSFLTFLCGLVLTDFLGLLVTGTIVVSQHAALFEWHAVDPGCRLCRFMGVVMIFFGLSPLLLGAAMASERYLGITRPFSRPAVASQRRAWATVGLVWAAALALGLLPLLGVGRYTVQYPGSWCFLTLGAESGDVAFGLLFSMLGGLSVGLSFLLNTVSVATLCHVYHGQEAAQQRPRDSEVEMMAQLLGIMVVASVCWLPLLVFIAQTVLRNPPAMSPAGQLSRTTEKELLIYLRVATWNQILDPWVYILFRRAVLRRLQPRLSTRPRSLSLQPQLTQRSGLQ

[4] = molecular target: Beta-1 adrenergic receptor (Homo sapiens, UniProt P08588); format: functional, cell-based
B1 bradykinin receptor = molecular target: T4, B1 bradykinin receptor (Homo sapiens, UniProt P46663)
T4 sequence (P46663 whole entry): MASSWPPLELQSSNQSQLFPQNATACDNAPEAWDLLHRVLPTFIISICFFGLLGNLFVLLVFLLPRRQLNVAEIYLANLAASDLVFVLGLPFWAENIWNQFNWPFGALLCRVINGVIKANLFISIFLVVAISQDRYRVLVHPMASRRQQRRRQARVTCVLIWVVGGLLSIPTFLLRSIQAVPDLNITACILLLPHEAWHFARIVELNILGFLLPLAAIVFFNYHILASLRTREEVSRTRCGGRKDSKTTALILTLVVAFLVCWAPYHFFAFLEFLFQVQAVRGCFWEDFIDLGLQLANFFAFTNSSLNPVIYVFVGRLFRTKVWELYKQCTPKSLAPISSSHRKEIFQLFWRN

[5] = molecular target: T5, Corticotropin-releasing factor receptor 1 (Homo sapiens, UniProt P34998)
T5 sequence (P34998 whole entry): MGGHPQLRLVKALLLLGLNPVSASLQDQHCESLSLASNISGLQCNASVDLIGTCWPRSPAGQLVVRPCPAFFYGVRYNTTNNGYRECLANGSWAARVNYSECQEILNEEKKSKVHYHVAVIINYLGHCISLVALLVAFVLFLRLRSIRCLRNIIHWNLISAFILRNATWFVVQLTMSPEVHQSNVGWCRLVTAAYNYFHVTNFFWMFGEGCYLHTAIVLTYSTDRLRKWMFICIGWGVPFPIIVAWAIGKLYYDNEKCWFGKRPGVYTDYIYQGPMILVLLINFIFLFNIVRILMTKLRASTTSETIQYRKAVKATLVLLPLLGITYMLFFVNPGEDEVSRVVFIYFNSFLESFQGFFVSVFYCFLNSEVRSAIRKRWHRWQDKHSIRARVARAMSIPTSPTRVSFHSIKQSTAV

[6] = molecular target: T6, Endothelin receptor type B (Homo sapiens, UniProt P24530)
T6 sequence (P24530 whole entry): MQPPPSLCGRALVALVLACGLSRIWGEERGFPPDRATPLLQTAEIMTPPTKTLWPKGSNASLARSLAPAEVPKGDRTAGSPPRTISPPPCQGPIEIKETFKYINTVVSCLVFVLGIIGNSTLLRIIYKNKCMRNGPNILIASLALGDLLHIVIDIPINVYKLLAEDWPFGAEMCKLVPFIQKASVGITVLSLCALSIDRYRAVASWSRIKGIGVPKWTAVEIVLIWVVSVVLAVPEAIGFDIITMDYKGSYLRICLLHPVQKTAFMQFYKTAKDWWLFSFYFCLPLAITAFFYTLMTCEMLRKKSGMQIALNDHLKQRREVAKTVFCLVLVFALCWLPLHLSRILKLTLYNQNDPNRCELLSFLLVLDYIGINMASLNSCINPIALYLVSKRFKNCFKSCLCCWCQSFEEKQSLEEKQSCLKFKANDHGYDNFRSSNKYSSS

Substance-P receptor = Substance-P receptor (Homo sapiens, UniProt P25103)
D(1A) dopamine receptor = D(1A) dopamine receptor (Homo sapiens, UniProt P21728)
Note: assay procedure not described here.

Sequence of D(1A) dopamine receptor (P21728 whole entry): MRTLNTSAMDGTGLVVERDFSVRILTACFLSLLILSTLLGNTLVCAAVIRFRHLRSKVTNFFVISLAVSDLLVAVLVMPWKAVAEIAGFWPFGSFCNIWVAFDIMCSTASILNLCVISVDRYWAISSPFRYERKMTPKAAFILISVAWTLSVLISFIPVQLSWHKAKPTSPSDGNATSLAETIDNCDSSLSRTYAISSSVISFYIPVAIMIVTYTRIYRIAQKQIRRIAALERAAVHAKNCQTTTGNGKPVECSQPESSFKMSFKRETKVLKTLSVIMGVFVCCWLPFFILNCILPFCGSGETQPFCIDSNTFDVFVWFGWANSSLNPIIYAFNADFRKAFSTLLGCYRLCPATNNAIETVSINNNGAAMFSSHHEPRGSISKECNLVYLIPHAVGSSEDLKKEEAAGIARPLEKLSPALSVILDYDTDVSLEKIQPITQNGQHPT
Sequence of Beta-1 adrenergic receptor (P08588 whole entry): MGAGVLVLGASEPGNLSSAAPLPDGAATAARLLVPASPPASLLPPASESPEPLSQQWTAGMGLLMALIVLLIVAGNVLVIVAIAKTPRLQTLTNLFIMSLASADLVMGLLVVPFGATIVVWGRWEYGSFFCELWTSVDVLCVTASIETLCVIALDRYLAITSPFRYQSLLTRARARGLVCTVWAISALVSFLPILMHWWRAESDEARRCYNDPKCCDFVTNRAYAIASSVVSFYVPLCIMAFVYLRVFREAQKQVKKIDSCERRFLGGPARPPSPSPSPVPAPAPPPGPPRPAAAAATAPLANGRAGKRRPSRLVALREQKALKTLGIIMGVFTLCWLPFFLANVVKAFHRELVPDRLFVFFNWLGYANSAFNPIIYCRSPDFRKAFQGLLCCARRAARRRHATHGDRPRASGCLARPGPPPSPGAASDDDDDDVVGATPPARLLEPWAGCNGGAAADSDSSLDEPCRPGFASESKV
Sequence of Substance-P receptor (P25103 whole entry): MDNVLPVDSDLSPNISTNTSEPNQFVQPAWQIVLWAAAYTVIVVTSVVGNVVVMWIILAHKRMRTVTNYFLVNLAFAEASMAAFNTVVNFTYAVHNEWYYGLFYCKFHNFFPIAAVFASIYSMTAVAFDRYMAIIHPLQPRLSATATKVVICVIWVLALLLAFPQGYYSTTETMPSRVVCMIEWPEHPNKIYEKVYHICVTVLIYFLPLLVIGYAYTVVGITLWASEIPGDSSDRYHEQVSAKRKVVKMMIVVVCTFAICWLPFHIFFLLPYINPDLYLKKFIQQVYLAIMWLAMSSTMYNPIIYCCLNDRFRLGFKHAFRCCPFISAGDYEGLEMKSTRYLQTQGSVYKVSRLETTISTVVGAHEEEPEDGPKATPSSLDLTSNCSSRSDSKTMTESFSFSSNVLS
Sequence of Sodium-dependent dopamine transporter (Q01959 whole entry): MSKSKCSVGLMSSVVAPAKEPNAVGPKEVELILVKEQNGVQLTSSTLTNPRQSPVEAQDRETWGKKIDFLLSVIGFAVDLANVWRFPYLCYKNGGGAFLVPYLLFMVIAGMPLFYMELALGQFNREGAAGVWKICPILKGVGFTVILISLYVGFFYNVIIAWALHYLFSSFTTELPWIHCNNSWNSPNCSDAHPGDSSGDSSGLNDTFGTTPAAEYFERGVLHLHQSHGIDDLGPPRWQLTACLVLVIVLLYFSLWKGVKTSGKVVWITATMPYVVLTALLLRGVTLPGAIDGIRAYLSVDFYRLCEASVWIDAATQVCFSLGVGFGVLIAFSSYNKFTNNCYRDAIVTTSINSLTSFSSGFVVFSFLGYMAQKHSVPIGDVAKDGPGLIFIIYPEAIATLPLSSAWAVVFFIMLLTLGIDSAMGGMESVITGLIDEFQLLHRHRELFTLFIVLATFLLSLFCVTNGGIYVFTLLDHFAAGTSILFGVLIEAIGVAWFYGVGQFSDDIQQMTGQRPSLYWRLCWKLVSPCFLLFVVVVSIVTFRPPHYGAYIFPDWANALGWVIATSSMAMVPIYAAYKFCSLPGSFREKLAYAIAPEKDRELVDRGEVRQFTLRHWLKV

## Clc1ccccc1C(c1ccccc1)(c1ccccc1)n1ccnc1 [CLOTRIMAZOLE]
[1]
  AC50: > 10 µM

## THIMEROSAL
[2]
  AC50: > 30 µM
[3]
  AC50: > 30 µM
Thromboxane A2 receptor
  AC50: > 30 µM

## CO[C@]12C[C@@H](COC(=O)c3cncc(Br)c3)CN(C)[C@@H]1Cc1cn(C)c3cccc2c13 [NICERGOLINE]
[2]
  AC50: 21.8 µM
[3]
  AC50: 11.2 µM
Thromboxane A2 receptor
  AC50: > 30 µM

## C#C[C@]1(O)CC[C@H]2[C@@H]3[C@H](C)CC4=C(CCC(=O)C4)[C@H]3CC[C@@]21C [TIBOLONE]
[4]
  AC50: > 30 µM

## CC/C(=C(\c1ccccc1)c1ccc(OCCN(C)C)cc1)c1ccccc1 [TAMOXIFEN]
[1]
  AC50: > 10 µM

## COc1cccc(C2(O)CCCCC2CN(C)C)c1 (stereo not given) [TRAMADOL]
B1 bradykinin receptor
  AC50: > 30 µM
[5]
  AC50: > 30 µM
[6]
  AC50: > 30 µM
Substance-P receptor
  AC50: > 10 µM
D(1A) dopamine receptor
  AC50: > 10 µM

## C[C@@H]1O[C@@H](O[C@@H]2C=C3CC[C@@H]4[C@H](CC[C@]5(C)[C@@H](c6ccc(=O)oc6)CC[C@]45O)[C@@]3(C)CC2)[C@H](O)[C@H](O)[C@H]1O [PROSCILLARIDIN]
[4]
  AC50: > 30 µM

## Cc1c(OCC(F)(F)F)ccnc1C[S+]([O-])c1nc2ccccc2[nH]1 (stereo not given) [LANSOPRAZOLE]
B1 bradykinin receptor
  AC50: > 30 µM
[5]
  AC50: > 30 µM
[6]
  AC50: > 30 µM
Substance-P receptor
  AC50: 17.2 µM
D(1A) dopamine receptor
  AC50: > 10 µM
